Measurements reported in patent publication US9353113B2, “Tetrahydrocarboline derivative” (ONO PHARMACEUTICAL CO., LTD., priority 2011, dated 2016).
Counter-ions that a name gives are not always drawn.

The compounds below were run against human ENPP2 (Homo sapiens (Human), UniProt Q13822) (assay: Measurement of human ENPP2 inhibitory activity). Conditions: human ENPP2, 16:0-LPC substrate.
Assay type: biochemical
Description: 10 μL of a test compound solution (10% dimethyl sulfoxide) at each concentration and 40 μL of a 5 μg/mL human ENPP2 solution (buffer A: 100 mmol/L Tris-HCl (pH 9.0), 500 mmol/L NaCl, 5 mmol/L MgCl2, 0.05% Triton X-100) were mixed, 50 μL of a 2 mmol/L 16:0-lysophosphatidylcholine (LPC) solution (buffer A) was further added to react at 37° C. for 24 hours. Subsequently, to 10 ill, of the reaction solution was added 90 III, of a measurement buffer (0.5 mmol/L aminoantipyrine, 0.3 mmol/L N-ethyl-N-(2-hydroxy-3-sulfopropyl)-3-methylaniline, 1 U/mL peroxidase, 3 U/mL choline oxidase, 100 mmol/L Tris-HCl (pH 8.5), 5 mmol/L CaCl2) to react at 37° C. for 20 minutes, and spectrophotometric determination was performed at 555 nm.
Using a standard curve, a choline production amount (enzyme activity) in each test compound was calculated, and the inhibitory activity rate of each test compound was calculated, wherein the enzyme activity in a positive control to which a test compound is not added, was a 0% inhibition rate, and the enzyme activity in a negative control to which a test compound and human ENPP2 are not added, were 100% inhibition. Further, concerning the present compounds shown in Table 3, an IC50 value was calculated from inhibitory activity rate at each concentration.

| Structure (SMILES) | IC50 [nM] |
| --- | --- |
| CC1(C)[C@@H](CC(=O)N2CCc3c(n(Cc4ccc(C(F)(F)F)cc4)c4ncccc34)C2)CC[C@@]1(C)C(=O)O [Example 6(53), (1R,3R)-1,2,2-trimethyl-3-(2-oxo-2-{9-[4-(trifluoromethyl)benzyl]-5,6,8,9-tetrahydro-7H-pyrido[4′,3′:4,5]pyrrolo[2,3-b]pyridin-7-yl}ethyl)cyclopentanecarboxylic acid] | 10 |
| C[C@]1(C(=O)O)CC[C@H](CC(=O)N2CCc3c(n(Cc4ccc(C(F)(F)F)s4)c4ncccc34)C2)CC1 [Example 10(2), trans-1-methyl-4-[2-oxo-2-(9-{[5-(trifluoromethyl)-2-thienyl]methyl}-5,6,8,9-tetrahydro-7H-pyrido[4′,3′:4,5]pyrrolo[2,3-b]pyridin-7-yl)ethyl]cyclohexanecarboxylic acid] | 17 |
| C[C@@H]1CN(CC(=O)N2CCc3c(n(Cc4ccc(C(F)(F)F)s4)c4ncccc34)C2)C[C@H](C)N1CC(=O)O [Example 7(41), rel-{(2R,6S)-2,6-dimethyl-4-[2-oxo-2-(9-{[5-(trifluoromethyl)-2-thienyl]methyl}-5,6,8,9-tetrahydro-7H-pyrido[4′,3′:4,5]pyrrolo[2,3-b]pyridin-7-yl)ethyl]-1-piperazinyl}acetic acid dihydrochloride] | 4.9 |
| O=C(CC12CCC(C(=O)O)(CC1)C2)N1CCc2c(n(Cc3cnc(C(F)(F)F)s3)c3ncccc23)C1 [Example 6(65), 4-[2-oxo-2-(9-{[2-(trifluoromethyl)-1,3-thiazol-5-yl]methyl}-5,6,8,9-tetrahydro-7H-pyrido[4′,3′:4,5]pyrrolo[2,3-b]pyridin-7-yl)ethyl]bicyclo[2.2.1]heptane-1-carboxylic acid] | 5.1 |
| O=C(CCCC1(C(=O)O)CC1)N1CCc2c(n(Cc3ccc(C(F)(F)F)s3)c3ncccc23)C1 [Example 9(1), 1-[4-oxo-4-(9-{[5-(trifluoromethyl)-2-thienyl]methyl}-5,6,8,9-tetrahydro-7H-pyrido[4′,3′:4,5]pyrrolo[2,3-b]pyridin-7-yl)butyl]cyclopropanecarboxylic acid] | 12 |
| COc1cc(CC(=O)N2CCc3c(n(Cc4ccc(OC(F)(F)F)cc4)c4ncccc34)C2)ccc1C(=O)O [Example 11(12), 2-methoxy-4-(2-oxo-2-{9-[4-(trifluoromethoxy)benzyl]-5,6,8,9-tetrahydro-7H-pyrido[4′,3′:4,5]pyrrolo[2,3-b]pyridin-7-yl}ethyl)benzoic acid] | 5.4 |
| Cc1nc(C(F)(F)F)sc1Cn1c2c(c3cccnc31)CCN(C(=O)C[C@H]1CC[C@@](C)(C(=O)O)C1(C)C)C2 [Example 6(63), (1R,3R)-1,2,2-trimethyl-3-[2-(9-{[4-methyl-2-(trifluoromethyl)-1,3-thiazol-5-yl]methyl}-5,6,8,9-tetrahydro-7H-pyrido[4′,3′:4,5]pyrrolo[2,3-b]pyridin-7-yl)-2-oxoethyl]cyclopentanecarboxylic acid] | 8 |
| O=C(C[C@H]1CC[C@H](C(=O)O)CC1)N1CCc2c(n(Cc3ccc(F)cc3F)c3ncccc23)C1 [Reference Example 2, trans-4-{2-[9-(2,4-difluorobenzyl)-5,6,8,9-tetrahydro-7H-pyrido[4′,3′:4,5]pyrrolo[2,3-b]pyridin-7-yl}-2-oxoethyl]cyclohexanecarboxylic acid, reference compound] | 14 |
| O=C(O)C1CCN(CC(=O)N2CCc3c(n(Cc4ccc(OC(F)(F)F)cc4)c4ncccc34)C2)CC1 [Example 7(3), 1-(2-oxo-2-{9-[4-(trifluoromethoxy)benzyl]-5,6,8,9-tetrahydro-7H-pyrido[4′,3′:4,5]pyrrolo[2,3-b]pyridin-7-yl}ethyl)-4-piperidinecarboxylic acid hydrochloride] | 28 |
| C[C@]1(C(=O)O)CC[C@H](CC(=O)N2CCc3c(n(Cc4cnc(C(F)(F)F)s4)c4ncccc34)C2)CC1 [Example 10(5), trans-1-methyl-4-[2-oxo-2-(9-{[2-(trifluoromethyl)-1,3-thiazol-5-yl]methyl}-5,6,8,9-tetrahydro-7H-pyrido[4′,3′:4,5]pyrrolo[2,3-b]pyridin-7-yl)ethyl]cyclohexanecarboxylic acid] | 3.8 |
| COc1cc(CC(=O)N2CCc3c(n(Cc4sc(C(F)(F)F)nc4C)c4ncccc34)C2)cc(OC)c1C(=O)O [Example 11(24), 2,6-dimethoxy-4-[2-(9-{[4-methyl-2-(trifluoromethyl)-1,3-thiazol-5-yl]methyl}-5,6,8,9-tetrahydro-7H-pyrido[4′,3′:4,5]pyrrolo[2,3-b]pyridin-7-yl)-2-oxoethyl]benzoic acid] | 8.4 |
| O=C(O)C1=CCN(CC(=O)N2CCc3c(n(Cc4ccc(C(F)(F)F)s4)c4ncccc34)C2)CC1 [Example 7(45), 1-[2-oxo-2-(9-{[5-(trifluoromethyl)-2-thienyl]methyl}-5,6,8,9-tetrahydro-7H-pyrido[4′,3′:4,5]pyrrolo[2,3-b]pyridin-7-yl)ethyl]-1,2,3,6-tetrahydro-4-pyridinecarboxylic acid] | 16 |
| CC(C)(CCCC(=O)N1CCc2c(n(Cc3cnc(C(F)(F)F)s3)c3ncccc23)C1)C(=O)O [Example 3(50), 2,2-dimethyl-6-oxo-6-(9-{[2-(trifluoromethyl)-1,3-thiazol-5-yl]methyl}-5,6,8,9-tetrahydro-7H-pyrido[4′,3′:4,5]pyrrolo[2,3-b]pyridin-7-yl)hexanoic acid] | 4.5 |

These compounds were tested on SD male rat (assay: Measurement of urethra internal pressure in rat under anesthesia). Conditions: dose 1.0 mg/kg intravenously.
Assay type: in vivo
Description: A SD male rat (Crl: CD(SD), Charles River Laboratories Japan, Inc., 7-10 weeks old) which has fasted since the evening of the day before this experiment was anesthetized by subcutaneous administration of 1.5 g/kg urethane at a back of a neck. After an abdominal part was median incised, a catheter for duodenum was inserted within lumen of duodenum and then tied down by string. A lower abdominal part was median incised, and a urethra was ligated at around pubis. A urethral catheter for measuring a urethra internal pressure, equipped with a collar at a tip and filled with a physiological saline was inserted into a urethra through an incised bladder top, and ligation-fixed at a bladder neck part. The urethral catheter was connected to a pressure transducer (manufactured by Nihon Kohden Corporation), and a urethra internal pressure was measured. […] A urethra internal pressure reduction rate (%) was calculated based on a urethra internal pressure after compound administration, wherein a value obtained by subtracting a postmorten basline value (minimum value of urethra internal pressure for 10 minutes after administration of somnopentyl) from a urethra internal pressure value before compound administration (0 minute) was 100%.

| Structure (SMILES) | urethra internal pressure reduction rate [%] |
| --- | --- |
| CCc1cccc(Cn2c3c(c4cccnc42)CCN(C(=O)CC24CCC(C(=O)O)(CC2)C4)C3)c1 [Example 6(72), 4-{2-[9-(3-ethylbenzyl)-5,6,8,9-tetrahydro-7H-pyrido[4′,3′:4,5]pyrrolo[2,3-b]pyridin-7-yl]-2-oxoethyl}bicyclo[2.2.1]heptane-1-carboxylic acid] | 25 |

The compounds below were run on Crl:CD (Sparague-Dawley) male rat (assay: Measurement of blood pressure, heart rate in rat under wakefulness). Conditions: conscious rat, 100, 300 mg/kg forcedly orally administered, up to 180 minutes.
Assay type: in vivo
Description: A Crl:CD (Sparague-Dawley) male rat (Charles River Laboratories Japan, Inc., 8 weeks old) was anesthetized by inhalation of isoflurane. A catheter (INTRAMEDIC POLYETHYLENE Tubing PE50, CLAY ADAMS) was inserted and indwelled in a femoral artery and another end was exposed from dorsal skin. The rat was placed in a rearing cage for blood pressure measurement. After elapse of 2 hours or more from the insertion of the catheter, each of the compound of Reference Example 2 and the compound of Example 6(72) (dose: 100, 300 mg/kg) was forcedly orally administered, and blood pressure was measured under no anesthesia and no restraint. The blood pressure was measured by connecting the catheter inserted in the femoral artery and a blood pressure transducer (DX-360, Nihon Kohden Corporation) and passing through an amplifier for blood pressure measurement (Coupler•Amplifier PP-101HAP-101H, Nihon Kohden Corporation). Blood pressure signals were captured into a data acquisition analysis system (HEM 3.5, NOTOCORD SYSTEM S.A.) through a polygraph system (PEG-1000, Nihon Kohden Corporation) to measure blood pressure (systolic pressure, diastolic pressure, mean blood pressure) and heart rate (measured from blood pressure pulse wave). […] The data were accumulated as measured values at respective time points and % variation values in which each value before administration was taken as 100.

| Structure (SMILES) | influence on a circulatory organ (blood pressure, heart rate) |
| --- | --- |
| O=C(C[C@H]1CC[C@H](C(=O)O)CC1)N1CCc2c(n(Cc3ccc(F)cc3F)c3ncccc23)C1 [Reference Example 2, trans-4-{2-[9-(2,4-difluorobenzyl)-5,6,8,9-tetrahydro-7H-pyrido[4′,3′:4,5]pyrrolo[2,3-b]pyridin-7-yl}-2-oxoethyl]cyclohexanecarboxylic acid, reference compound] | An influence of the compound of Reference Example 2 on a circulatory organ was observed |
| CCc1cccc(Cn2c3c(c4cccnc42)CCN(C(=O)CC24CCC(C(=O)O)(CC2)C4)C3)c1 [Example 6(72), 4-{2-[9-(3-ethylbenzyl)-5,6,8,9-tetrahydro-7H-pyrido[4′,3′:4,5]pyrrolo[2,3-b]pyridin-7-yl]-2-oxoethyl}bicyclo[2.2.1]heptane-1-carboxylic acid] | no influence of the compound of Example 6(72) that is a compound of the present invention was observed on a circulatory organ |
